Measured values reported in patent US20260355182A1, “ISOQUINOLINE DERIVATIVE, SYNTHESIS METHOD THEREFOR, AND USE THEREOF” (Harbin Gloria Pharmaceuticals Co., Ltd., priority 2023, published 2026).

Key:
[1] = molecular target: T1, Pgk1 (Homo sapiens, UniProt P00558); assay: Affinity for Pgk1 protein (Biacore T200); format: binding
T1 sequence (P00558 1-417): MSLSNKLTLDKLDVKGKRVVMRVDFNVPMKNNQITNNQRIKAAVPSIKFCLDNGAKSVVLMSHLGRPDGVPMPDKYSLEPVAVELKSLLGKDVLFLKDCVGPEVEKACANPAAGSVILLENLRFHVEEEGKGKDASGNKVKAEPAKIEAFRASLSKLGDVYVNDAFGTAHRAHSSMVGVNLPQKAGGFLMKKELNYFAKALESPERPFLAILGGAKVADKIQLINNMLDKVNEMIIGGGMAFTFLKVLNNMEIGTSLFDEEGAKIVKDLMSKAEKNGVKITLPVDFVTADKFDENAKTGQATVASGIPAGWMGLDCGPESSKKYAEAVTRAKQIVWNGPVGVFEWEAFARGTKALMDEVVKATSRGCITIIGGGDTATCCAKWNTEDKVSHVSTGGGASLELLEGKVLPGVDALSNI
Protocol: Example 30: Determination of Affinities of Compounds for Pgk1 Protein
Purified Pgk1 protein (with a concentration of 1 mg/mL) was immobilized on a Biacore T200 chip. […] The obtained curves can calculate parameters such as affinity and Rmax.

[2] = test system: SK-N-SH cells (Pgk1 knockdown); assay: Seahorse mitochondrial respiration in Pgk1-knockdown and normal SK-N-SH cells; format: cell-based, human; details: 10 μM
Protocol: Cellular mitochondrial stress was detected using a Seahorse XFe analyzer (XFe-24, Seahorse Bioscience, Billerica, MA, UAS) to measure the oxygen consumption rate (OCR). SH-SKN cell lines were seeded in a 24-well plate compatible with the Seahorse XFe analyzer. After 24 hours, cells were treated with DMSO (0.01%) or various drugs (10 μM). Cellular mitochondrial stress was detected 12 hours after drug treatment. For the mitochondrial stress test, 97.2 mL of Seahorse basal medium (Seahorse Bioscience, Billerica, MA, UAS) was taken and heated in a water bath to 37 °C, and 1 mL of a stock solution was added. The stock solution was prepared by mixing the following solutions: 1 mL of 200 mM L-glutamine solution (Sigma), 1 mL of 100 mM pyruvate solution (Sigma), and 800 μL of 2.5 M glucose solution, and the pH of the stock solution was adjusted to 7.4 with 1 M NaOH solution. Before detection, the probe plate was taken out, and 1 mL of XF Carlibrant solution (Seahorse Bioscience) was added to the probe plate. The plate was then incubated overnight in a CO2-free constant temperature incubator at 37 °C. After drug treatment, the cells were removed and washed twice with preheated Seahorse basal medium at 37 °C, ensuring that 500 μL of Seahorse basal medium remained in each well. The cells were incubated in a CO2-free constant temperature incubator at 37 °C for 1 hour. […]

[3] = test system: db/db mice; assay: Long-term hypoglycemic and weight-loss effects in db/db mice, drinking water; format: in vivo; details: drinking water 7 days
Protocol: The hypoglycemic effect of the novel isoquinoline derivatives via intraperitoneal injection lasted no more than 6 hours. To determine the long-term hypoglycemic effect of T6, T6 was added to drinking water and administered to mice continuously for one week.
After 7 days of treatment, changes in glycated hemoglobin (HbA1c) level, insulin level in mouse blood, and body weight, were measured.

[4] = molecular target: T1, Pgk1; assay: T6 binding affinity with Pgk1 by SPR; details: steady-state affinity model
Description: Surface plasmon resonance (SPR) was used to measure the interaction between the small molecule T6 and Pgk1. Equilibrium binding responses at increasing T6 concentrations were fitted using a steady-state affinity model. In FIG. 9, diamonds represent the measured response units (RU), and the black curve indicates the fitted binding isotherm. […] The vertical line marks the calculated KD value.

[5] = test system: primary mouse neurons; assay: Cellular status and glucose metabolism-related gene expression in primary mouse neurons; format: cell-based; details: normoxic, 72 h, T6 10 PM (so in the source)
Description: In FIG. 10, A) representative bright-field images show the cellular status of primary neurons after treatment. […] The analyzed genes included G6PD, HK2, LDHA, PDK1, PGK1, and SLC2A1/GLUT1. […] TZ treatment produced a similar but generally more moderate metabolic gene-response profile, including increased LDHA, PDK1, and SLC2A1/GLUT1 expression. […] Error bars indicate variation among measurements. […] The results support the use of T6 or related compounds as agents capable of regulating neuronal metabolic status and glucose metabolism-associated pathways.

[6] = test system: SKN cells (Pgk1 shRNA); assay: Mitochondrial respiration in SKN cells with Pgk1 shRNA (Seahorse); format: cell-based
Protocol: SKN cells were transduced with Pgk1 shRNA to reduce endogenous Pgk1 expression and were subsequently treated with vehicle control or compound T6. […] GAPDH was used as a loading control; B) mitochondrial respiration was assessed by Seahorse extracellular flux analysis and is expressed as oxygen consumption rate (OCR; pmol/min/10^4 cells). Oligomycin, FCCP, and rotenone plus antimycin were sequentially added to evaluate basal respiration, ATP-linked respiration, maximal respiratory capacity, and non-mitochondrial respiration. […] In contrast, Pgk1 knockdown reduced mitochondrial respiratory activity and diminished the respiration-enhancing effect of T6. […] Data are presented as mean±SD, with individual points representing replicate measurements. Statistical significance is indicated as **P<0.001; ns, not significant. […] The data support Pgk1 as a functional cellular target mediating the metabolic activity of T6.

[7] = test system: SOD1G93A transgenic mice; assay: High-copy-number SOD1G93A ALS model mice, body weight and survival; format: in vivo; details: 0.2 mg/kg i.p. once daily from 80 days of age
Protocol: High-copy-number SOD1G93A transgenic mice, a genetic model of amyotrophic lateral sclerosis (ALS), were treated with compound T6 or vehicle control beginning at 80 days of age. T6 was administered once daily by intraperitoneal injection at 0.2 mg/kg, and control animals received PBS. Disease-associated slowing of movement was observed beginning at approximately 90 days of age. […] The control group included 7 mice, and the T6-treated group included 5 mice. T6 treatment shifted the survival curve to the right, indicating an extension of survival after initiation of treatment (survival analysis, p=0.072).

[8] = molecular target: T1, Pgk1; assay: In vitro biochemical Pgk1 enzymatic activity assay (NADH production); parameters: GAPDH-coupled NADH assay; details: role: activator, 1.6 mM GAP, 1 mM β-NAD, 1 mM ADP
Protocol: Human Pgk1 cDNA was cloned into the pEASYTM-E2 vector (TransGen Biotech) containing a His tag. Protein expression was induced in BL21(DE3) chemocompetent cells (TransGen Biotech) with 0.5 mM IPTG. After lysing cells in extraction buffer (20 mM sodium phosphate, 500 mM NaCl, 5 mM imidazole, 5% glycerol, protease inhibitor cocktail, pH 7.9), the supernatant was purified with nickel beads (AdarBiotech). The His-tagged Pgk1 was eluted with the elution buffer (20 mM sodium phosphate, 500 mM NaCl, 80 mM imidazole, protease inhibitor cocktail, pH 7.9). The activity of Pgk1 can be measured by monitoring the rate of NADH production, as NADH accumulated as the reaction proceeded. Purified Pgk1-His protein ([…]) was added to the reaction buffer (20 mM Tris, 100 mM NaCl, 2 mM DTT, 0.1 mM MgSO4, 10 mM NaHPO4, pH 8.6), and the substrates (1.6 mM GAP, 1 mM β-NAD, 1 mM ADP, 20 ng/μL GAPDH) was added. […] After reaction for 10 minutes at room temperature, the absorbance wavelength at 339 nm was measured using a microplate reader (Molecular Devices, SpectraMax i3x), and this wavelength corresponds to NADH levels.

Question: What does the source list for `Nc1nc(N2CCN(C(=O)[C@H]3CCCO3)CC2)cc2cc3c(cc12)OCC3` [Compound T6]?
Answer: Kd ([1]; + saturated ADP, read-out: Affinity (KD) in the presence of ADP): > 1000 µM; Rmax ([1]; drug alone, amount of small-molecule drug bound): 106 RU; Basal and maximum respiratory rate, normal cells ([2]; normal (control) cells): activated both the basal respiratory rate and maximum respiratory rate; Basal and maximum respiratory rate, shPgk1 knockdown cells ([2]; shPgk1 knockdown cells): this activity was absent in shPgk1 knockdown cells; Glycated hemoglobin (HbA1c) level ([3]; metformin 350 mg/kg, terazosin 0.3 mg/kg, T6 1.5 mg/kg): decrease in glycated hemoglobin (HbA1c) level; Long-term hypoglycemic effect versus terazosin and metformin ([3]; long-term oral administration): better hypoglycemic effect than that of terazosin and metformin; Estimated Rmax [4]: 7.799 RU; Kd ([4]; read-out: KD (approximately)): ~22.4 µM; Kd ([4]; read-out: KD (fitted dissociation constant)): 22.4 µM; Relative mRNA expression of G6PD ([5]; control = 1.0): increased; Neuronal cellular morphology/status ([5]; TZ 10 μM): detectable changes in neuronal cellular morphology/status; Relative mRNA expression of HK2 ([5]; TZ 10 μM, control = 1.0): not increased; Relative mRNA expression of LDHA ([5]; TZ 10 μM, control = 1.0): increased; Relative mRNA expression of PDK1 ([5]; TZ 10 μM, control = 1.0): increased; Relative mRNA expression of PGK1 ([5]; TZ 10 μM, control = 1.0): only modestly changed; Relative mRNA expression of SLC2A1/GLUT1 ([5]; TZ 10 μM, control = 1.0): increased; Basal respiration and maximal respiration (OCR), Pgk1 shRNA cells ([6]; Pgk1 shRNA-expressing SKN cells): no significant increase; Basal respiration and maximal respiration (OCR), control cells ([6]; control SKN cells): significantly increased both basal respiration and maximal respiration; Survival ([7]; vs PBS): delayed mortality; Body weight ([7]; 81 to 123 days of age): maintained body weight more effectively; Concentration for best activation of Pgk1 ([8]; 20 ng/μL GAPDH, pH 8.6, 10 minutes): 0.1 µM; Inhibition of Pgk1 at the tested concentrations ([8]; all tested concentrations): none of the concentrations can inhibit Pgk1
